Data as given in the NIST ThermoML archive (doi:10.1016/j.jct.2017.06.018).
Numbers after ± are expanded uncertainties.

Details: Liquid, Closed cell (Static) method

C=C(F)C(F)(F)F [2,3,3,3-tetrafluoro-1-propene]
Details | vapor or sublimation pressure [kPa]
243.15 K | 99.4 ± 1.6
248.15 K | 123.2 ± 1.6
253.15 K | 151.4 ± 1.6
258.15 K | 184.2 ± 1.6
263.15 K | 222.4 ± 1.6
268.15 K | 266.9 ± 1.6
273.15 K | 317.2 ± 1.7
278.15 K | 374.4 ± 1.7
283.15 K | 438.5 ± 1.7
288.15 K | 511.9 ± 1.8
293.15 K | 591.7 ± 1.8
